# “Also recorded” adds a separate entry of the source. Where two headings read alike, the source gives them in different places.
# Columns and labels:
# [1] = target: T1, LTA4H aminopeptidase activity (Homo sapiens, UniProt P09960)
# T1 sequence (P09960 1-611): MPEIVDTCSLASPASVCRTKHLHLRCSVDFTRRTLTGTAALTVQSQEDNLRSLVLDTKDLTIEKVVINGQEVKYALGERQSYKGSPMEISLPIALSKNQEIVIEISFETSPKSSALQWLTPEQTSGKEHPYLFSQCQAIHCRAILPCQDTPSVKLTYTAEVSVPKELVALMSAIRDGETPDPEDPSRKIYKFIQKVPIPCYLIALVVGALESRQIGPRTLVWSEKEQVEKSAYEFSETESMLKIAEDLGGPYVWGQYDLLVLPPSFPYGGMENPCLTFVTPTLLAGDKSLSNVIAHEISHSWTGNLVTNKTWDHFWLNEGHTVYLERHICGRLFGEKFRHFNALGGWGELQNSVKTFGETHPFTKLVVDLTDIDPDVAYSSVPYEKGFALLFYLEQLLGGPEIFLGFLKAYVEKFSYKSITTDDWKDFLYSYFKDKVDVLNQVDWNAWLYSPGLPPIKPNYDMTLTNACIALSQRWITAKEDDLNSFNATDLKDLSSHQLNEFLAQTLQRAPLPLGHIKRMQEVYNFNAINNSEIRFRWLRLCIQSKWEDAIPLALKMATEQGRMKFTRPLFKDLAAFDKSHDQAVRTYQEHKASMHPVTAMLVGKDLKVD
# [2] = target: T2, LTA4H epoxide hydrolase activity (Homo sapiens, UniProt P09960); conditions: Table 3; read-out: Epoxide Hydrolase IC50 ± SEM; cited from earlier work
# T2 sequence (P09960 1-611): T1 sequence (P09960 1-611)
# [3] = target: T3, LTA4H (Homo sapiens, UniProt P09960); conditions: cited from earlier work
# T3 sequence (P09960 1-611): T1 sequence (P09960 1-611)
# [4] = system: neutrophil swarming; assay: Neutrophil swarming in vitro in response to factors in human CF sputum; conditions: acebilustat 48 ng/mL, factors present in human CF sputum
# [5] = system: lymphedema patients; assay: Expanded access program, LymVAS quality of life; assay type: in vivo, human; conditions: as early as 3 months, maintained at 6 months; 11 EAP patients
# Procedure: Quality of life indicators were also evaluated in the 11 EAP patients using LymVAS, a tool to interrogate lymphedema patient experience and is based on experience and practice from prior lymphedema trials. LymVAS uses a sliding visual analog scale, wherein patients move the slider along a line to indicate the degree of response to a question. LymVAS has two segments: 1.
# [6] = system: lymphedema patients; assay: Expanded access program, dermal ultrasound; assay type: in vivo, human
# [7] = system: affected limb of lymphedema patients; assay: Expanded access program, bioimpedance of affected limb; assay type: in vivo, human; conditions: 6 months vs baseline; p<0.01; higher bioimpedance = lower water content
# Excerpt: Bioimpedance is a measure of water content, and a higher bioimpedance corresponds to a lower water content.
# FIGS. 5A, 5B and 5C are graphs presenting the same data as change in bioimpedance (as compared to baseline) over time.
# [8] = system: LTB4 production in human whole blood; assay: Human whole blood ex vivo LTB4 production; assay type: cell-based; conditions: human whole blood tested ex vivo; read-out: approximate IC50, LTB4 production
# Procedure: The hydrolase-homogeneous time resolved fluorescence assay is a two-step assay that measures the hydrolysis of LTA4 to LTB4 by analyzing the amount of LTB4 produced. The first step involves the enzymatic conversion of LTA4 to LTB4 and the second step involves the quantification of the LTB4 formed with a homogeneous time resolved fluorescence assay. […] In the whole blood assay, the inhibitor compounds are tested for their ability to inhibit LTB4 release upon stimulation with calcium ionophore and the LTB4 levels in supernatants are measured by ELISA.
# [9] = system: LTB4 production; assay: Pharmacodynamic studies in humans, LTB4 production/inhibition; assay type: in vivo, human
# [10] = system: upper limb lymphedema patient; assay: HEAL Phase 2 trial case report, dermal ultrasound of forearm; assay type: in vivo, human; conditions: Stage II lymphedema subject
# Excerpt: We present the early ultrasonographic responses of a participant who has completed 3 months of a total 6-month exposure. The primary endpoint for this trial involves quantitative analysis of dermal ultrasound skin changes.
# These preliminary results lend great promise to the HEAL trial.
# [11] = system: affected (lymphedematous) limb of lymphedema patients; assay: Expanded access program, skin thickness of affected limb by caliper; assay type: in vivo, human; conditions: p<0.0001
# Procedure: Skin thickness was measured by caliper.
# At 6 months, a 43% reduction in skin thickness was observed (mean for 10 patients; p<0.0001).
# [12] = system: sputum white blood cells and neutrophils of CF patients; assay: Sputum cell counts in CF patients
# [13] = system: adult patients with CF; conditions: 48 weeks of treatment; Phase II adult CF patients; cited from earlier work
# [14] = system: affected limb of lymphedema patients; assay: Expanded access program, limb volume; assay type: in vivo, human; conditions: 6 months; mean for 6 patients; p<0.03
# Excerpt: At 6 months, a 6.7% reduction in limb volume was observed (mean for 6 patients; p<0.03).
# [15] = Table 2; read-out: Aminopeptidase IC50 ± SEM; cited from earlier work
# [16] = Table 3; read-out: Aminopeptidase IC50 ± SEM; cited from earlier work
# [17] = patient with right leg lymphedema, at 6 months
# [18] = 3 months of treatment vs baseline
# [19] = 3 months of treatment vs baseline, listed as Acebilustat
smiles,measurement,setting,value
CC(=O)Oc1ccc(/C=C/c2cc(OC(C)=O)cc(OC(C)=O)c2)cc1 [Cmpd 4],IC50,[1]; Table 1; read-out: Aminopeptidase IC50 ± SEM; cited from earlier work,> 100 µM
COc1cc(O)cc(CCc2ccc(O)cc2)c1 [Cmpd 6],IC50,[1]; [15],> 100 µM
CCOc1cc(O)cc(CCc2ccc(O)cc2)c1 [Cmpd 7],IC50,[1]; [15],> 100 µM
COc1cc(O)cc(CCc2cccc(O)c2)c1 [Cmpd 8],IC50,[1]; [15],> 100 µM
COc1cc(O)cc(CCc2ccccc2O)c1 [Cmpd 9],IC50,[1]; [15],> 100 µM
O=C(Cc1ccc(O)cc1)c1ccc(O)cc1O [Cmpd 10],IC50,[1]; [16],> 100 µM
O=c1c(-c2ccc(O)cc2)coc2cc(O)ccc12 [Cmpd 11],IC50,[1]; read-out: Aminopeptidase IC50 ± SEM; Table 3; cited from earlier work,> 100 µM
O=c1c(-c2ccc(O)cc2)coc2c(O)c(O)ccc12 [Cmpd 12],IC50,[2],7.3 ± 0.8 µM
O=c1c(-c2ccccc2)coc2cc(O)ccc12 [Cmpd 13],IC50,[1]; [16],> 100 µM
CC(C)C[C@H](NC(=O)[C@@H](O)[C@H](N)Cc1ccccc1)C(=O)O [Ubenimex],potency at inhibiting LTB4 generation versus PGP degradation (selectivity class),[3],non-selective LTA4H inhibitor
"O=C(O)c1ccc(CN2C[C@@H]3C[C@H]2CN3Cc2ccc(Oc3ccc(-c4ncco4)cc3)cc2)cc1 [acebilustat, 4-{[(1S,4S)-5-({4-[4-oxazol-2-yl-phenoxy]phenyl}methyl)-2,5-diazabicyclo[2.2.1]heptan-2-yl]methyl}benzoic acid]",reduction of neutrophil swarming,[4],80%
same,LymVAS Total Change Score,[5],significant improvement
same,LymVAS quality of life Total Status Score,[5],significant improvement
same,reduction in subcutaneous thickness,"[6]; different patient (FIG. 7), after 6 months of treatment",15.2%
same,reduction of dermal thickness,[6]; [17],3.7%
same,reduction of subdermal thickness,[6]; [17],over 20.2%
same,reduction of total thickness,[6]; [17],17.6%
same,bioimpedance (water content) of affected limb,[7],significantly lower water content; also recorded: significantly higher bioimpedance
same,IC50,[8],~0.0308 µg/mL
same,inhibition at 50 mg,"[9]; 50 mg dose, human pharmacodynamic studies",≥ 63%
same,inhibition at 100 mg,"[9]; 100 mg dose, human pharmacodynamic studies",≥ 74%
same,inhibition at 150 mg,"[9]; 150 mg dose, human pharmacodynamic studies",≥ 82%
same,LTB4 inhibition,"[9]; 200 mg, human pharmacodynamic studies",at least 85%
same,EC50,"[9]; Homo sapiens, pharmacodynamic studies in humans, read-out: estimated in vivo EC50, inhibition of LTB4 production",0.093 µg/mL
same,demarcation of dermo-epidermal junction and subcutaneous fascial bands,[10]; 3 months of treatment,enhanced demarcation
same,dermal echogenicity by ultrasound,[10]; [18],reduced echogenicity
same,dermal thickness by ultrasound,[10]; [18],reduced dermal thickness
same,subcutaneous tissue echogenicity,[10]; [18],decreased
same,dermal thickness by ultrasound,[10]; [19],reduced
same,subcutaneous tissue echogenicity,[10]; [19],reduced
same,skin thickness of affected limb,"[11]; 3 months after acebilustat treatment vs baseline, caliper",dramatically reduced; also recorded: significant decrease
same,reduction in skin thickness,"[11]; 6 months vs baseline, mean for 10 patients",43%
same,decrease of sputum white blood cells from Baseline,[12]; 100 mg acebilustat group,60%
same,decrease of sputum neutrophils,[12]; 100 mg group,65%
same,decrease of sputum neutrophils,[12]; all treated patients (doses of 50 to 100 mg),34%
same,decrease of sputum white blood cells from Baseline,[12]; all treated subjects (doses of 50 or 100 mg),31%
same,rate of pulmonary exacerbations,[13],showed promise in reducing the rate of pulmonary exacerbations
same,risk of infection,[13],no evidence of increased risk of infection
same,reduction in limb volume,[14],6.7%

# From patent US20260166031A1, “Methods of Treating Lipedema and Lymphatic Disease of the Subcutaneous Tissue” (Celltaxis, LLC, priority 2023, published 2026)
